Our source for the Activity values is ChEMBL document CHEMBL1157949, “Kalanchosine dimalate, an anti-inflammatory salt from Kalanchoe brasiliensis” (J Nat Prod, 2006).

Activity calls are given as the source filed them. The calls are words filed in the database; no cut-off is given here.

The test system of the test is Mus musculus. The test can be described thus: Antiinflammatory activity against zymosan-induced inflammation in mouse assessed as impairment of increase in popliteal lymph node weight at 240 mg/kg, ip administered daily 2 days before zymosan challenge measured after 5 days. The format is functional, organism-based. Also noted: dose 240 mg/kg.

For the compound `NC(CC(=O)O)C(O)C(O)C(N)CC(=O)O` (stereo unspecified), the result was Active.
